Experiment: Stability study for amorphous trisodium sacubitril valsartan complex (HPLC purity and PXRD on storage)
Assay type: physicochemical
Source text: In another embodiment, the present invention provides a method of packing amorphous form of sacubitril valsartan trisodium complex, comprising: placing amorphous form of sacubitril valsartan trisodium complex in LDPE bag under nitrogen atmosphere; placing the product containing Low-density polyethylene (LDPE) bag in a second LDPE bag under nitrogen atmosphere; keeping the silica gel packet between two LDPE bags and sealing; placing the second sealed bag in a triple laminated bag and sealing.
The X-Ray powder diffraction can be measured using PANalytical X'per^3pro X-ray powder Diffractometer equipped with a Cu-anode ([λ]=1.54 Angstrom), X-ray source operated at 45 kV, 40 mA. Two-theta calibration is performed using an NIST SRM 640c Si standard. The sample was analyzed using the following instrument parameters: measuring range=3-45° 20; step size=0.01°; and Time per step=23 sec.
In another embodiment, the present invention provides Sacubitril sodium and amorphous form of sacubitril-valsartan trisodium complex obtained by the above process, as analyzed using high performance liquid chromatography (“HPLC”) with the conditions are tabulated below:
The amorphous form of trisodium sacubitril valsartan complex is packed in LDPE bag under nitrogen atmosphere and placed in another LDPE bag, filled with nitrogen and kept silica gel packet between the bags, tied with strip seal. Kept the bag in triple laminated sunlight barrier bag and sealed with heat sealer. The stability of the samples was tested at 25±2° C./60±5% RH and 40±2° C./75±5% RH respectively.

[1] = 25 ± 2° C./60 ± 5% RH, 1st month
[2] = 25 ± 2° C./60 ± 5% RH, 3rd month
[3] = 25 ± 2° C./60 ± 5% RH, 6th month
[4] = 40 ± 2° C./75 ± 5% RH, 1st month
[5] = 40 ± 2° C./75 ± 5% RH, 3rd month
[6] = 40 ± 2° C./75 ± 5% RH, 6th month

**Q.** With sacubitril valsartan trisodium complex as the substance, how does the “HPLC purity (%)” value [1] read?
**A.** Its value is 99.95%.

**Q.** What about the PXRD [1] of the same substance?
**A.** Its PXRD is “Amorphous”.

**Q.** And the “HPLC purity (%)” value [2]?
**A.** The value was 99.94%.

**Q.** And the PXRD [2]?
**A.** Its PXRD is “Amorphous”.

**Q.** What about the “HPLC purity (%)” value [3] of the same substance?
**A.** The value was 99.93%.

**Q.** What about the PXRD [3] of the same substance?
**A.** The PXRD was “Amorphous”.

**Q.** And the “HPLC purity (%)” value (25 ± 2° C./60 ± 5% RH, Initial)?
**A.** The value was 99.94%.

**Q.** What about the PXRD (25 ± 2° C./60 ± 5% RH, Initial) of the same substance?
**A.** The PXRD was “Amorphous”.

**Q.** What about the “HPLC purity (%)” value [4] of the same substance?
**A.** Its value is 99.95%.

**Q.** What about the PXRD [4] of the same substance?
**A.** The PXRD was “Amorphous”.

**Q.** And the “HPLC purity (%)” value [5]?
**A.** The value was 99.93%.

**Q.** What about the PXRD [5] of the same substance?
**A.** The PXRD was “Amorphous”.

**Q.** What about the “HPLC purity (%)” value [6] of the same substance?
**A.** Its value is 99.90%.

**Q.** And the PXRD [6]?
**A.** The PXRD was “Amorphous”.

**Q.** What about the “HPLC purity (%)” value (40 ± 2° C./75 ± 5% RH, Initial) of the same substance?
**A.** Its value is 99.94%.

**Q.** And the PXRD (40 ± 2° C./75 ± 5% RH, Initial)?
**A.** Its PXRD is “Amorphous”.

**Q.** What about the “solid form on storage” value (packed in LDPE/triple laminated bags, up to 6 months at real and accelerated conditions, up to about 40° C., about 25% to about 75% RH) of the same substance?
**A.** The value was “the amorphous character was retained”.

**Q.** What about the “stability at real time and accelerated conditions” value (stored at 25±2° C./60±5% RH for 6 months and at 40±2° C./75±5% RH for 6 months) of the same substance?
**A.** The value was “stable”.

— patent US11318116B2, “Stable amorphous form of sacubitril valsartan trisodium complex and processes for preparation thereof” (Laurus Labs Limited, priority 2016, dated 2022)
